# Test results taken from patent publication US20020137706A1, “Regulated growth factor delivery for engineered peripheral nerve” (priority 2000, published 2002).
# Tests used:
# [1] = test system: right sciatic nerve defect; settings: rat, in vivo
# Method: Surgical Technique. Twenty-one Sprague Dawley (250 gms) rats with a right sciatic nerve defect were implanted with the 12 mm PLLA conduits. […] Briefly the animals were anesthetized and maintained by a 0.4 cc intramuscular injection of a premixed solution containing 64 mg/ml ketamine HCL (Keta-Sthetic™ Boehringer Ingelheim, St Joseph, Mo.), 3.6 mg/ml xylazine (Rompun™ Miles Inc., Shawnee Mission, Kans.), and 0.07 mg/ml atropine sulfate (Elkins-Sinn Inc., Cherry Hill, N.J.). The skin from the clipped lateral thigh was scrubbed in a routine fashion with antiseptic solution. The incision extended from the greater trochanter to the midcalf distally. The sciatic and posterior tibial nerves were exposed by a muscle splitting incision. […]
# The medical and lateral gastrocnemius muscle was harvested at 6 and 16 weeks and weighed in order to assess nerve reinnervation. […] The difference in weight of the containers before and after muscle placement determined the muscle weight.
# Histological Assessment. […] Images of the histological sections were digitized using a CCD camera and subsequently analyzed using standard image processing and analysis techniques. […] The number of axons were counted to give the number of axons/mm^2. The area of each axon was determined, summed together, and expressed as area axons/image area to give the nerve fiber density. […]
# PC-12 cells = test: Bioactivity assay of released NGF, PC-12 differentiation; type: cell-based; settings: 4 days culture in supernatant of MurA-induced transfected hDFBs; p≦0.002
# Method: PC-12 cells were obtained from ATCC (CRL-1721). PC-12 cells were maintained in F12k supplemented with 15% horse serum (Sigma, St. Louis, Mo.), 2.5% FBS, and penicillin-streptomycin-glutamine mixture (Gibco). For the NGF bioactivity assay, PC-12 cells were seeded at 10^2 cells/750 μL in 12-well plates.
# NGF Bioactivity. Bioactivity assay of released NGF was assessed using PC-12 cells with their differentiation as the endpoint. PC-12 cells were incubated with PC.12 culture media (control) or media supernatants from transfected hDFBs in the presence of MurA (i.e., media with released NGF). Briefly, hDFBs were cultured and exposed to 3 μM Muristerone for 3 days in 12-well plates.
# The media, theoretically with containing NGF released from transfected hDFBs, was then removed and used to culture PC-12 cells in 12-well plates. After 4 days, random images were digitized of each well and the number of differentiated and undifferentiated Data are reported as fraction of PC-12 cells that were differentiated.
neuromas [1],Substance,inflammatory reaction [1],PC-12 differentiation versus media alone (PC-12 cells)
no neuromas were apparent clinically,poly (L-Lactic acid) [PLLA conduits],No severe inflammatory reaction could be identified,
,NGF secreted from hDFBs: nerve growth factor in media supernatants from transfected hDFBs in the presence of MurA,,markedly higher levels
